# Legend:
# [1] = tested on: corn; assay: Test A postemergence; assay type: in vivo, Zea mays; conditions: postemergence, 10 days
# In short: (§1)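 Greenhouse pot test, 10 days. Compound (non-phytotoxic solvent, surfactant) sprayed on soil at seeding or on seedlings at one- to two-leaf stage. Visual injury rated 0–100 against untreated plants.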
# [2] = tested on: rice; assay: Test B flooded paddy test; assay type: in vivo, Oryza sativa; conditions: 250 g ai/ha, Flood, 13 days, 0 to 100 scale (0 no effect, 100 complete control)
# In short: (§2)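 Plants at the 2-leaf stage were flooded to 3 cm above the soil, and test compounds were applied directly into the paddy water, with that depth held throughout. After 13 days in a greenhouse, injury was rated visually against untreated controls on a 0–100 scale (100 = complete control).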
# [3] = tested on: ryegrass, Italian; assay: Test A postemergence; assay type: in vivo, Lolium multiflorum; conditions: postemergence, 10 days
# In short: as §1
# [4] = tested on: oat, wild; assay: Test A postemergence; assay type: in vivo, Avena fatua; conditions: postemergence, 10 days
# In short: as §1
# [5] = tested on: ducksalad; assay: Test B flooded paddy test; assay type: in vivo, Heteranthera limosa; conditions: 250 g ai/ha, Flood, 13 days, 0 to 100 scale (0 no effect, 100 complete control)
# In short: as §2
# [6] = tested on: soybean; assay: Test A postemergence; assay type: in vivo, Glycine max; conditions: postemergence, 10 days
# In short: as §1
# [7] = tested on: corn; assay: Test A preemergence; assay type: in vivo, Zea mays; conditions: 0 to 100 scale
# In short: as §1
# [8] = tested on: barnyardgrass; assay: Test A postemergence; assay type: in vivo, Echinochloa crusgalli; conditions: postemergence, 10 days
# In short: as §1
# [9] = tested on: kochia; assay: Test A preemergence; assay type: in vivo, Bassia scoparia; conditions: 0 to 100 scale
# In short: as §1
# [10] = tested on: blackgrass; assay: Test A postemergence; assay type: in vivo, Alopecurus myosuroides; conditions: postemergence, 10 days
# In short: as §1
# [11] = tested on: barnyardgrass; assay: Test B flooded paddy test; assay type: in vivo, Echinochloa crus-galli; conditions: 250 g ai/ha, Flood, 13 days, 0 to 100 scale (0 no effect, 100 complete control)
# In short: as §2
# [12] = tested on: galium; assay: Test A postemergence; assay type: in vivo, Galium aparine; conditions: 500 g ai/ha, postemergence, 10 days, visual injury, 0 to 100 scale (0 no effect, 100 complete control)
# In short: as §1
# [13] = tested on: pigweed, palmer; assay: Test A postemergence; assay type: in vivo, Amaranthus palmeri; conditions: 500 g ai/ha, postemergence, 10 days, visual injury, 0 to 100 scale (0 no effect, 100 complete control)
# In short: as §1
# [14] = tested on: kochia; assay: Test A postemergence; assay type: in vivo, Bassia scoparia; conditions: postemergence, 10 days
# In short: as §1
# [15] = tested on: wheat; assay: Test A preemergence; assay type: in vivo, Triticum aestivum; conditions: 0 to 100 scale
# In short: as §1
# [16] = tested on: ragweed; assay: Test A preemergence; assay type: in vivo, Ambrosia artemisiifolia; conditions: 0 to 100 scale
# In short: as §1
# [17] = tested on: blackgrass; assay: Test A preemergence; assay type: in vivo, Alopecurus myosuroides; conditions: 0 to 100 scale
# In short: as §1
# [18] = tested on: oat, wild; assay: Test A preemergence; assay type: in vivo, Avena fatua; conditions: 0 to 100 scale
# In short: as §1
# [19] = tested on: ryegrass, Italian; assay: Test A preemergence; assay type: in vivo, Lolium multiflorum; conditions: 0 to 100 scale
# In short: as §1
# [20] = tested on: wheat; assay: Test A postemergence; assay type: in vivo, Triticum aestivum; conditions: postemergence, 10 days
# In short: as §1
# [21] = tested on: foxtail, giant; assay: Test A postemergence; assay type: in vivo, Setaria faberi; conditions: postemergence, 10 days
# In short: as §1
# [22] = tested on: sedge, umbrella; assay: Test B flooded paddy test; assay type: in vivo, Cyperus difformis; conditions: 250 g ai/ha, Flood, 13 days, 0 to 100 scale (0 no effect, 100 complete control)
# In short: as §2
# [23] = tested on: horseweed; assay: Test A postemergence; assay type: in vivo, Erigeron canadensis; conditions: postemergence, 10 days
# In short: as §1
# [24] = tested on: ragweed; assay: Test A postemergence; assay type: in vivo, Ambrosia artemisiifolia; conditions: postemergence, 10 days
# In short: as §1
# [25] = tested on: soybean; assay: Test A preemergence; assay type: in vivo, Glycine max; conditions: 0 to 100 scale
# In short: as §1
# [26] = tested on: barnyardgrass; assay: Test A preemergence; assay type: in vivo, Echinochloa crusgalli; conditions: visual injury after 10 days, 0 to 100 scale, 0 is no effect, 100 is complete control
# In short: as §1
# [27] = tested on: foxtail, giant; assay: Test A preemergence; assay type: in vivo, Setaria faberi; conditions: 0 to 100 scale
# In short: as §1
# [28] = tested on: pigweed, palmer; assay: Test A preemergence; assay type: in vivo, Amaranthus palmeri; conditions: 0 to 100 scale
# In short: as §1
# [29] = 125 g ai/ha, 0 to 100 scale, 0 no effect, 100 complete control
# [30] = 500 g ai/ha, visual injury, 0 to 100 scale (0 no effect, 100 complete control)
# [31] = 500 g ai/ha, visual injury after 10 days, 0 is no effect, 100 is complete control
structure (smiles),measurement,setting,value
Cc1nc(C)n(-c2cccc(C(=O)N3C[C@H](C)Oc4c(Cl)cccc43)c2)n1 [Compound 142],Corn plant response rating,[1]; [29],10
same,"Plant response rating, Corn",[1]; [30],10
same,"Plant response rating, Rice",[2],0
same,"Ryegrass, Italian plant response rating",[3]; [29],0
same,"Plant response rating, Ryegrass, Italian",[3]; [30],20
same,"Oat, Wild plant response rating",[4]; [29],0
same,"Plant response rating, Oat, Wild",[4]; [30],0
same,"Plant response rating, Ducksalad",[5],0
same,Soybean plant response rating,[6]; [29],40
same,"Plant response rating, Soybean",[6]; [30],40
same,"Plant response rating, Corn",[7]; 125 g ai/ha,0
same,"Plant response rating, Corn",[7]; [31],10
same,Barnyardgrass plant response rating,[8]; [29],10
same,"Plant response rating, Barnyardgrass",[8]; [30],10
same,"Plant response rating, Kochia",[9]; 125 g ai/ha,0
same,"Plant response rating, Kochia",[9]; [31],40
same,Blackgrass plant response rating,[10]; [29],0
same,"Plant response rating, Blackgrass",[10]; [30],60
same,"Plant response rating, Barnyardgrass",[11],0
same,"Plant response rating, Galium",[12],30
same,"Plant response rating, Pigweed, Palmer",[13],20
same,Kochia plant response rating,[14]; [29],10
same,"Plant response rating, Kochia",[14]; [30],50
same,"Plant response rating, Wheat",[15]; 125 g ai/ha,0
same,"Plant response rating, Wheat",[15]; [31],0
same,"Plant response rating, Ragweed",[16]; 125 g ai/ha,0
same,"Plant response rating, Ragweed",[16]; [31],0
same,"Plant response rating, Blackgrass",[17]; 125 g ai/ha,0
same,"Plant response rating, Blackgrass",[17]; [31],30
same,"Plant response rating, Oat, Wild",[18]; 125 g ai/ha,0
same,"Plant response rating, Oat, Wild",[18]; [31],0
same,"Plant response rating, Ryegrass, Italian",[19]; 125 g ai/ha,30
same,"Plant response rating, Ryegrass, Italian",[19]; [31],50
same,Wheat plant response rating,[20]; [29],10
same,"Plant response rating, Wheat",[20]; [30],10
same,"Foxtail, Giant plant response rating",[21]; [29],30
same,"Plant response rating, Foxtail, Giant",[21]; [30],80
same,"Plant response rating, Sedge, Umbrella",[22],0
same,Horseweed plant response rating,[23]; [29],0
same,"Plant response rating, Horseweed",[23]; [30],0
same,Ragweed plant response rating,[24]; [29],0
same,"Plant response rating, Ragweed",[24]; [30],20
same,"Plant response rating, Soybean",[25]; 125 g ai/ha,0
same,"Plant response rating, Soybean",[25]; [31],0
same,"Plant response rating, Barnyardgrass",[26]; 125 g ai/ha,30
same,"Plant response rating, Barnyardgrass",[26]; 500 g ai/ha,50
same,"Plant response rating, Foxtail, Giant",[27]; 125 g ai/ha,30
same,"Plant response rating, Foxtail, Giant",[27]; [31],90
same,"Plant response rating, Pigweed, Palmer",[28]; 125 g ai/ha,0
same,"Plant response rating, Pigweed, Palmer",[28]; [31],20

# Reference: patent US20260262643A1, “HERBICIDAL BENZOXAZINES” (FMC CORPORATION, priority 2022, published 2026)
